Test results reported in the NIST ThermoML archive (doi:10.1021/je3007666).
± gives the expanded uncertainty stated by the source.

Columns and labels:
[1] = relative permittivity at zero frequency (dimensionless); conditions: 100 kPa, Liquid, Dielectrometer
[2] = relative permittivity at zero frequency (dimensionless); xn = mol fraction of the nth substance listed; conditions: 100 kPa, Liquid, Dielectrometer

Row | Structure (SMILES) | relative permittivity at zero frequency ([1]; 288.15 K) | relative permittivity at zero frequency ([1]; 293.15 K) | relative permittivity at zero frequency ([1]; 298.15 K) | relative permittivity at zero frequency ([1]; 303.15 K) | relative permittivity at zero frequency ([1]; 308.15 K) | relative permittivity at zero frequency ([2]; 288.15 K, x2 = 0) | relative permittivity at zero frequency ([2]; 293.15 K, x2 = 0) | relative permittivity at zero frequency ([2]; 298.15 K, x2 = 0) | relative permittivity at zero frequency ([2]; 303.15 K, x2 = 0) | relative permittivity at zero frequency ([2]; 308.15 K, x2 = 0) | further results
1 | CCCCO [butan-1-ol] | 19.01 ± 0.06 | 18.28 ± 0.06 | 17.58 ± 0.06 | 16.91 ± 0.06 | 16.26 ± 0.06 | – | – | – | – | – | –
2 | CC(C)(C)O [2-methylpropan-2-ol] | 14.49 ± 0.06 | 13.38 ± 0.06 | 12.49 ± 0.06 | 11.34 ± 0.06 | 10.4 ± 0.06 | – | – | – | – | – | –
3 | CCC(C)O (stereo not given) [butan-2-ol] + CC(C)CO | – | – | – | – | – | – | – | – | – | – | relative permittivity at zero frequency ([2]; 288.15 K, x1 = 1): 18.47 ± 0.06; relative permittivity at zero frequency ([2]; 293.15 K, x1 = 1): 17.51 ± 0.06; relative permittivity at zero frequency ([2]; 298.15 K, x1 = 1): 16.6 ± 0.06; relative permittivity at zero frequency ([2]; 303.15 K, x1 = 1): 15.75 ± 0.06; relative permittivity at zero frequency ([2]; 308.15 K, x1 = 1): 14.94 ± 0.06
4 | CCC(C)O (stereo not given) [butan-2-ol] | 18.47 ± 0.06 | 17.51 ± 0.06 | 16.6 ± 0.06 | 15.75 ± 0.06 | 14.94 ± 0.06 | – | – | – | – | – | –
5 | CCCCO [butan-1-ol] + CCC(C)O | – | – | – | – | – | 19.01 ± 0.06 | 18.28 ± 0.06 | 17.58 ± 0.06 | 16.91 ± 0.06 | 16.26 ± 0.06 | –
6 | CCCCO [butan-1-ol] + CC(C)CO | – | – | – | – | – | 19.01 ± 0.06 | 18.28 ± 0.06 | 17.58 ± 0.06 | 16.91 ± 0.06 | 16.26 ± 0.06 | –
7 | CCCCO [butan-1-ol] + CC(C)(C)O | – | – | – | – | – | 19.01 ± 0.06 | 18.28 ± 0.06 | 17.58 ± 0.06 | 16.91 ± 0.06 | 16.26 ± 0.06 | –
8 | CC(C)(C)O [2-methylpropan-2-ol] + CC(C)CO | – | – | – | – | – | – | – | – | – | – | relative permittivity at zero frequency ([2]; 288.15 K, x1 = 1): 14.49 ± 0.06; relative permittivity at zero frequency ([2]; 293.15 K, x1 = 1): 13.38 ± 0.06; relative permittivity at zero frequency ([2]; 298.15 K, x1 = 1): 12.49 ± 0.06; relative permittivity at zero frequency ([2]; 303.15 K, x1 = 1): 11.34 ± 0.06; relative permittivity at zero frequency ([2]; 308.15 K, x1 = 1): 10.4 ± 0.06
9 | CC(C)CO [2-methyl-1-propanol] | 19.51 ± 0.06 | 18.71 ± 0.06 | 17.96 ± 0.06 | 17.23 ± 0.06 | 16.53 ± 0.06 | – | – | – | – | – | –
10 | CCC(C)O (stereo not given) [butan-2-ol] + CC(C)(C)O | – | – | – | – | – | 18.47 ± 0.06 | 17.51 ± 0.06 | 16.6 ± 0.06 | 15.75 ± 0.06 | 14.94 ± 0.06 | –
